The source of these data is ChEMBL document CHEMBL1153320, “Development of the renal glucose reabsorption inhibitors: a new mechanism for the pharmacotherapy of diabetes mellitus type 2” (J Med Chem, 2009).

The subject of data set [1] is Homo sapiens. The data set is described as follows: Antidiabetic activity in po dosed type 2 diabetes mellitus patient assessed as reduction in HbA1C level in liver. Type of data set: functional. Also on record: scale not given: the % may be the effect or the level left.
In data set [2] the test system is Homo sapiens. The data set is described as follows: Antidiabetic activity in po dosed type 2 diabetes mellitus patient assessed as reduction in HbA1C level in intestine. It is filed as functional. Also on record: scale not given: the % may be the effect or the level left.
Data set [3] has as its system Homo sapiens. The data set is described as follows: Antidiabetic activity in po dosed type 2 diabetes mellitus patient assessed as reduction in HbA1C level […]. It is filed as functional. Also on record: scale not given: the % may be the effect or the level left.
Data set [4] relates to Homo sapiens. Nature of the data set: Antidiabetic activity in po dosed type 2 diabetes mellitus patient assessed as reduction in HbA1C level in small intestine. Type of data set: functional. Also on record: scale not given: the % may be the effect or the level left.
The species entered for data set [5] is Homo sapiens. The data set is described as follows: Antidiabetic activity in type 2 diabetes mellitus patient assessed as reduction body weight. It is filed as functional. The arrangement: scale not given: the % may be the effect or the level left.
Data set [6] deals with Homo sapiens. Nature of the data set: Antidiabetic activity in type 2 diabetes mellitus patient assessed as reduction in HbA1C level at 750 mg, po daily measured after 12 weeks. Type of data set: functional. Also on record: scale not given: the % may be the effect or the level left.
In data set [7] the test system is Rattus norvegicus. Nature of the data set: Antidiabetic activity in normal Sprague-Dawley rat assessed as urinary glucose excretion at 3 mg/kg, po after 24 hrs. It is filed as functional, Urine.
Data set [8] concerns Rattus norvegicus. The data set is described as follows: Antidiabetic activity in normal Sprague-Dawley rat assessed as urinary glucose excretion at 1 mg/kg, po after 24 hrs. It is filed as functional, Urine.
Data set [9] deals with Rattus norvegicus. The data set is described as follows: Antidiabetic activity in normal Sprague-Dawley rat assessed as urinary glucose excretion at 10 mg/kg, po after 24 hrs. It is filed as functional, Urine.
Data set [10] has as its system Homo sapiens. Nature of the data set: Antidiabetic activity in normal human assessed as plasma glucose level at 500 mg, po after 4 hrs by OGTT. It is filed as functional.
The test system of data set [11] is Rattus norvegicus. The data set is described as follows: Antidiabetic activity in normal Sprague-Dawley rat assessed as urinary glucose excretion at 30 mg/kg, po after 24 hrs. It is filed as functional, Urine.
Data set [12] has as its system Homo sapiens. The data set is described as follows: Antidiabetic activity in normal human assessed as reduction urinary glucose excretion at 200 mg, po after 24 hrs. It is filed as functional, Urine.
The test system of data set [13] is Homo sapiens. The data set is described as follows: Antidiabetic activity in over-weight subject assessed as reduction of body weight at […], po tid for 2 weeks. Type of data set: functional.
The subject of data set [14] is Homo sapiens. The data set is described as follows: Antidiabetic activity in normal human assessed as reduction urinary glucose excretion at 500 mg, po after 24 hrs. It is filed as functional, Urine.
The target of data set [15] is T1, Sodium/glucose cotransporter 2 (Homo sapiens, UniProt P31639).
T1 sequence (P31639 whole entry): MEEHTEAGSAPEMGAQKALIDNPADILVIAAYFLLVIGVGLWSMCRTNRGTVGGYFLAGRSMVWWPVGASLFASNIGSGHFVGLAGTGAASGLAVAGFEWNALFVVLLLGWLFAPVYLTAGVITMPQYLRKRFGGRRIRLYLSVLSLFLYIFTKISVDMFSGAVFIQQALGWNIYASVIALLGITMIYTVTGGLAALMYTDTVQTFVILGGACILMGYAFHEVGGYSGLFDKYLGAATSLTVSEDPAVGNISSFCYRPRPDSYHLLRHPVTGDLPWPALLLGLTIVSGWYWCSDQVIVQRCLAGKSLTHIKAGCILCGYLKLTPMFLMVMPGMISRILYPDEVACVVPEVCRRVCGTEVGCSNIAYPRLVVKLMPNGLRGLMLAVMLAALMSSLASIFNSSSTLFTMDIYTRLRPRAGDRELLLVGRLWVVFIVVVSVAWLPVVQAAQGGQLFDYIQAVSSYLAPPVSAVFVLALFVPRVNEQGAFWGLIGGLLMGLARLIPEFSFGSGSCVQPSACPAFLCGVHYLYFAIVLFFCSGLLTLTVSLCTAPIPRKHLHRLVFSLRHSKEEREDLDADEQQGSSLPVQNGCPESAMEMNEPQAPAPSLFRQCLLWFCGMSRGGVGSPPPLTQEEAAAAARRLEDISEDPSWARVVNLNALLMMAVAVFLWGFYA
The data set is described as follows: Inhibition of human kidney SGLT2 assessed as renal glucose reabsorption.

The species entered for data set [16] is Homo sapiens. Nature of the data set: Selectivity for human SGLT2 over human SGLT1.
The test system of data set [17] is Rattus norvegicus. The data set is described as follows: Antidiabetic activity in normal Sprague-Dawley rat assessed as urinary glucose excretion at 300 mg/kg, po after 24 hrs. It is filed as functional, Urine.
For data set [18], the system named is Rattus norvegicus. The data set is described as follows: Antidiabetic activity in normal Sprague-Dawley rat assessed as urinary glucose excretion at 100 mg/kg, po after 24 hrs. Type of data set: functional, Urine.
The subject of data set [19] is Homo sapiens. Nature of the data set: Antidiabetic activity in po dosed type 2 diabetes mellitus patient assessed as reduction in HbA1C level in adipose tissue. Also on record: scale not given: the % may be the effect or the level left. It is filed as functional.
In data set [20] the test system is Homo sapiens. Nature of the data set: Antidiabetic activity in po dosed type 2 diabetes mellitus patient assessed as reduction in HbA1C level in skeletal muscle. Also on record: scale not given: the % may be the effect or the level left. Type of data set: functional, Muscle tissue.
Data set [21] is described as follows: Half life in normal human at 10 to 100 mg/day, po administered as single ascending dose. Particulars: in vivo.
A short description of another data set: clinical. The following applies: human, in vivo, po.
A short description of data set [22]: Clearance in normal human at 10 to 100 mg/day, po administered as single ascending dose. The following applies: in vivo.

Consider `CN(C)C(=N)NC(=N)N` [METFORMIN], for which the Activity in the data set on Homo sapiens [1], with Homo sapiens [2] and in the data set with Homo sapiens [3] was 1% throughout.

Turning to `CCC1=C(C)CN(C(=O)NCCc2ccc(S(=O)(=O)NC(=O)N[C@H]3CC[C@H](C)CC3)cc2)C1=O` [GLIMEPIRIDE], the Activity in the data set with Homo sapiens [3] worked out at 1%.

For `C[C@H]1O[C@H](O[C@H]2[C@H](O)[C@@H](O)[C@@H](O[C@H]3[C@H](O)[C@@H](O)C(O)O[C@@H]3CO)O[C@@H]2CO)[C@H](O)[C@@H](O)[C@@H]1N[C@H]1C=C(CO)[C@@H](O)[C@H](O)[C@H]1O` (stereo partly specified) [ACARBOSE], the Activity in the data set with Homo sapiens [4] and in the data set on Homo sapiens [3] was 0.5% throughout.

Take `C/N=C(\N)N(C)C(=N)N.Cl` [METFORMIN XR]: the Activity in the data set filed under Homo sapiens [5] amounted to 2.3%; in the data set with Homo sapiens [6], 0.73%.

As to `CCOc1cc(CC(=O)N[C@@H](CC(C)C)c2ccccc2N2CCCCC2)ccc1C(=O)O` [REPAGLINIDE], the Activity in the data set on Homo sapiens [3] is reported as 1%.

For the molecule `CCOC(=O)OC[C@H]1O[C@@H](Oc2nn(C(C)C)c(C)c2Cc2ccc(OC(C)C)cc2)[C@H](O)[C@@H](O)[C@@H]1O` [REMOGLIFLOZIN ETABONATE], the Activity with Rattus norvegicus [7] was found to be 95 mg; in the data set on Rattus norvegicus [8], 36 mg; in the data set with Rattus norvegicus [9] it was 320 mg.

Consider `CCOC(=O)OC[C@H]1O[C@@H](Oc2ccccc2Cc2ccc(OC)cc2)[C@H](O)[C@@H](O)[C@@H]1O` [SERGLIFLOZIN ETABONATE], for which the Activity with Rattus norvegicus [7] came out at 80 mg; with Rattus norvegicus [9] it was 180 mg; with Homo sapiens [10], 7 mmol·h/L; with Rattus norvegicus [11], 400 mg; in the data set with Homo sapiens [12], 12 g; in the data set on Homo sapiens [13] it was 1.5 kg. In the data set on Homo sapiens [14], the Activity was found to be 17 g.

As to `COc1ccc(Cc2ccccc2O[C@@H]2O[C@H](CO)[C@@H](O)[C@H](O)[C@H]2O)cc1` [SERGLIFLOZIN A], in [15], the EC50 worked out at 9 nM and the Ki came out at 2.4 nM. Also, the Ratio in the data set listed under Homo sapiens [16] was 296.

For the molecule `O=C(CCc1ccc(O)cc1)c1c(O)cc(O)cc1O[C@@H]1O[C@H](CO)[C@@H](O)[C@H](O)[C@H]1O` [PHLORIZIN], the Activity in the data set on Rattus norvegicus [17] worked out at 80 mg.

Turning to `N[C@@H](CC(=O)N1CCn2c(nnc2C(F)(F)F)C1)Cc1cc(F)c(F)cc1F` [SITAGLIPTIN], the Activity in the data set on Homo sapiens [2] worked out at 0.6%.

Regarding `COC(=O)OC[C@H]1O[C@@H](Oc2cc(C)cc(O)c2C(=O)CCc2ccc3occc3c2)[C@H](O)[C@@H](O)[C@@H]1O`, the Activity in the data set on Rattus norvegicus [18] is on record as 1000 mg; in the data set with Rattus norvegicus [9], 50 mg; with Rattus norvegicus [11], 450 mg; with Rattus norvegicus [17], 2000 mg.

On to `CN(CCOc1ccc(CC2SC(=O)NC2=O)cc1)c1ccccn1` (stereo unspecified) [ROSIGLITAZONE], for which the Activity with Homo sapiens [19], with Homo sapiens [1] and in the data set on Homo sapiens [20] was 0.5% throughout.

In the case of `Cc1c(Cc2ccc(OC(C)C)cc2)c(O[C@@H]2O[C@H](CO)[C@@H](O)[C@H](O)[C@H]2O)nn1C(C)C` [REMOGLIFLOZIN], in data set [15], the EC50 is 14 nM and the Ki came to 12.4 nM. Moreover, in the data set listed under Homo sapiens [16], the Ratio was 365.

In the case of `CCNC(=O)c1c(O)c(Cc2ccc(OC)cc2)cc([C@@H]2O[C@H](CO)[C@@H](O)[C@H](O)[C@H]2O)c1O`, the EC50 in data set [15] is 500 nM.

Regarding `Cc1cc(O)c(C(=O)CCc2ccc3occc3c2)c(O[C@@H]2O[C@H](CO)[C@@H](O)[C@H](O)[C@H]2O)c1`, the IC50 in data set [15] came out at 50 nM.

With `CCOc1ccc(Cc2cc([C@@H]3O[C@H](CO)[C@@H](O)[C@H](O)[C@H]3O)ccc2Cl)cc1` [DAPAGLIFLOZIN], the Activity with Rattus norvegicus [8] is on record as 1100 mg. The molecule further gave a half-life in [21] of 15 h. In addition, the Tmax in “clinical” stood at 1 h. In [22], this molecule displayed a CL/F of 6 mL/min.

On to `CCc1ccc(Cc2ccccc2[C@@H]2O[C@H](CO)[C@@H](O)[C@H](O)[C@H]2O)cc1`, for which the EC50 in data set [15] was over 2 nM.
